This passage reports Ki, IC50 and inhibition in vivo results from US10131679B2, “Substituted dihydropyrrolopyrazole compound” (UBE INDUSTRIES, LTD., priority 2014, dated 2018).

One assay deals with T1, CDK2 (Homo sapiens, UniProt P24941).
T1 construct: purchased Invitrogen Corp. PV3267
As to the kind of experiment: CDK2 enzyme inhibition test. The class given is biochemical. As to conditions: Ki=IC50/(1+S/Km); 33P bound to MBP, [γ-33P]ATP, 30° C. for 20 minutes; read-out: Ki value of CDK2 inhibitory activity. The procedure, abridged:
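Commercial CDK2 with MBP substrate and [γ-33P]ATP (500 μM solution, before mixing) in HEPES pH 7.4 buffer with DTT, Triton X-100 and MgCl2; 20 min at 30 °C. TCA-precipitated 33P-MBP counted by liquid scintillation; IC50 from inhibition of 33P incorporation, Ki = IC50/(1+S/Km).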

In assay [1] the test system is human large intestine cancer cell line (HCT-116). As to the kind of experiment: Human large intestine cancer (HCT-116) cell growth inhibition test. The class given is cell-based. To be noted: 72 h, HCT-116, culture for 3 days, sulforhodamine B absorbance. The gist of the method:
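HCT-116 cells seeded at 1.0×10^3 cells/well in McCoy's 5a with 10% FBS, then exposed to compound (0.1% DMSO final) for 3 days. Growth measured by sulforhodamine B absorbance; IC50 derived from concentration-inhibition data.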

The test system of assay [2] is mouse imiquimod-induced psoriasis model. Nature of the assay: Ear thickening suppression test using mouse imiquimod-induced psoriasis model. The assay is classed as in vivo. As to conditions: topical, 120 h, thickness measured on day 5, BALB/c mice, read-out: rate of inhibition of increase in right auricle thickness; for inhibition in vivo at 1 %: application of a 1% solution in methanol for 4 days; for inhibition in vivo at 0.01 %: application of a 0.01% methanol solution for 4 days. The procedure, abridged:
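Female BALB/c mice received test compound topically or orally, then 5 mg imiquimod cream (5%) on the right auricle 60 minutes later, daily for 4 days. Ear thickness was measured on day 5. Inhibition (%) of thickening was calculated relative to the solvent group, taken as 100%.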

Consider `COC[C@@H](NC(=O)N1Cc2c(NC(=O)C3([Si](C)(C)C)CCC3)n[nH]c2C1(C)C)c1ccccc1` [IV-123, (S)—N-(2-Methoxy-1-phenylethyl)-6,6-dimethyl-3-[1-(trimethylsilyl)cyclobutanecarboxamido]-4,6-dihydropyrrolo[3,4-c]pyrazole-5(1H)-carboxamide], for which, on CDK2, the Ki (usually the equilibrium dissociation constant of an inhibitor or competing ligand from its target) is no less than 1 µM. For the same compound, the IC50 (in general, the midpoint of a concentration-inhibition curve) in assay [1] was no more than 0.5 µM. Further, the inhibition in vivo at 1 % in assay [2] was no less than 50%.
`CCCO[C@@H](C(=O)N1Cc2c(NC(=O)C3([Si](C)(C)C)CCC3)n[nH]c2C1(C)C)c1ccccc1` [IV-1196, (R)—N-[6,6-Dimethyl-5-(2-phenyl-2-propoxyacetyl)-1,4,5,6-tetrahydropyrrolo[3,4-c]pyrazol-3-yl]-1-(trimethylsilyl)cyclobutanecarboxamide]: the Ki on CDK2 is no less than 1 µM. Moreover, the concentration for half-maximal inhibition (IC50) in assay [1] is no more than 0.5 µM. Moreover, the inhibition in vivo at 0.01 % in assay [2] is no less than 50%.
Regarding `CC(C)O[C@@H](C(=O)N1Cc2c(NC(=O)C3([Si](C)(C)C)CCC3)n[nH]c2C1(C)C)c1ccccc1` [IV-1204, (R)—N-[5-(2-Isopropoxy-2-phenylacetyl)-6,6-dimethyl-1,4,5,6-tetrahydropyrrolo[3,4-c]pyrazol-3-yl]-1-(trimethylsilyl)cyclobutanecarboxamide], the Ki on CDK2 is no less than 1 µM. In addition, in assay [1], the IC50 was no more than 0.5 µM. The inhibition in vivo at 0.01 % in assay [2] was no less than 50%.
For `CC(C)(CO)C(NC(=O)N1Cc2c(NC(=O)C3([Si](C)(C)C)CCC3)n[nH]c2C1(C)C)c1ccccc1` (single isomer, unassigned; (-)) [IV-673, (−)-N-(3-Hydroxy-2,2-dimethyl-1-phenylpropyl)-6,6-dimethyl-3-[1-(trimethylsilyl)cyclobutanecarboxamido]-4,6-dihydropyrrolo[3,4-c]pyrazole-5(1H)-carboxamide], the IC50 in assay [1] was no more than 0.5 µM. In addition, the inhibition in vivo at 0.01 % in assay [2] is no less than 50%.
With `CC1(C)c2[nH]nc(NC(=O)C3([Si](C)(C)C)CCC3)c2CN1C(=O)NC(c1ccccc1)C1(CO)CCC1` (stereo not shown) [IV-718, N-{[1-(Hydroxymethyl)cyclobutyl](phenyl)methyl}-6,6-dimethyl-3-[1-(trimethylsilyl)cyclobutanecarboxamido]-4,6-dihydropyrrolo[3,4-c]pyrazole-5(1H)-carboxamide], the inhibition constant Ki at CDK2 is no less than 1 µM. Further, in assay [1], the IC50 was no more than 0.5 µM. For the same compound, the inhibition in vivo at 0.01 % in assay [2] was no less than 50%.
Turning to `CC(C)(O)C[C@@H](NC(=O)N1Cc2c(NC(=O)C3([Si](C)(C)C)CCC3)n[nH]c2C1(C)C)c1cccc(F)c1` [IV-911, (R)—N-[1-(3-Fluorophenyl)-3-hydroxy-3-methylbutyl]-6,6-dimethyl-3-[1-(trimethylsilyl)cyclobutanecarboxamido]-4,6-dihydropyrrolo[3,4-c]pyrazole-5(1H)-carboxamide], the Ki at CDK2 is no less than 1 µM. In addition, the IC50 in assay [1] was no more than 0.5 µM. The inhibition in vivo at 0.01 % in assay [2] is no less than 50%.
Regarding `CC(C)(O)C[C@@H](NC(=O)N1Cc2c(NC(=O)C3([Si](C)(C)C)CCC3)n[nH]c2C1(C)C)c1ccccc1` [IV-299, (R)—N-(3-Hydroxy-3-methyl-1-phenylbutyl)-6,6-dimethyl-3-[1-(trimethylsilyl)cyclobutanecarboxamido]-4,6-dihydropyrrolo[3,4-c]pyrazole-5(1H)-carboxamide], the Ki at CDK2 was no less than 1 µM. This compound returned an IC50 in assay [1] of no more than 0.5 µM. Besides, the inhibition in vivo at 0.01 % in assay [2] was no less than 50%.
The compound `CO[C@@H](C(=O)N1Cc2c(NC(=O)C3([Si](C)(C)C)CCC3)n[nH]c2C1(C)C)c1ccccc1F` [IV-1383, (R)—N-{5-[2-(2-Fluorophenyl)-2-methoxyacetyl]-6,6-dimethyl-1,4,5,6-tetrahydropyrrolo[3,4-c]pyrazol-3-yl}-1-(trimethylsilyl)cyclobutanecarboxamide] returned a 50% inhibitory concentration (IC50) in assay [1] of no more than 0.5 µM. In assay [2], the inhibition in vivo at 0.01 % was no less than 50%.
Consider `CC(C)(O)C[C@@H](NC(=O)N1Cc2c(NC(=O)C3([Si](C)(C)C)CCC3)n[nH]c2C1(C)C)c1ccc(F)cc1` [IV-939, (R)—N-[1-(4-Fluorophenyl)-3-hydroxy-3-methylbutyl]-6,6-dimethyl-3-[1-(trimethylsilyl)cyclobutanecarboxamido]-4,6-dihydropyrrolo[3,4-c]pyrazole-5(1H)-carboxamide], for which the Ki on CDK2 is no less than 1 µM. The IC50 in assay [1] is no more than 0.5 µM. Further, the inhibition in vivo at 0.01 % in assay [2] was no less than 50%.
Take `CC(C)(CO)C(NC(=O)N1Cc2c(NC(=O)C3([Si](C)(C)C)CCC3)n[nH]c2C1(C)C)c1ccc(F)cc1` (stereo not shown) [IV-946, N-[1-(4-Fluorophenyl)-3-hydroxy-2,2-dimethylpropyl]-6,6-dimethyl-3-[1-(trimethylsilyl)cyclobutanecarboxamido]-4,6-dihydropyrrolo[3,4-c]pyrazole-5(1H)-carboxamide]: the inhibition constant Ki at CDK2 was no less than 1 µM. This compound also displayed an IC50 in assay [1] of no more than 0.5 µM. In addition, the inhibition in vivo at 0.01 % in assay [2] is no less than 50%.
On to `CCO[C@@H](C(=O)N1Cc2c(NC(=O)C3([Si](C)(C)C)CCC3)n[nH]c2C1(C)C)c1ccccc1` [IV-1188, (R)—N-[5-(2-Ethoxy-2-phenylacetyl)-6,6-dimethyl-1,4,5,6-tetrahydropyrrolo[3,4-c]pyrazol-3-yl]-1-(trimethylsilyl)cyclobutanecarboxamide], for which, in assay [1], the 50% inhibitory concentration (IC50) is no more than 0.5 µM. Also, the inhibition in vivo at 0.01 % in assay [2] is no less than 50%.
On the same counts, the results for `COC(C(=O)N1Cc2c(NC(=O)C3([Si](C)(C)C)CCC3)n[nH]c2C1(C)C)c1cccs1` (stereo not shown) [IV-1546, N-{5-[2-Methoxy-2-(thiophen-2-yl)acetyl]-6,6-dimethyl-1,4,5,6-tetrahydropyrrolo[3,4-c]pyrazol-3-yl}-1-(trimethylsilyl)cyclobutanecarboxamide] are no more than 0.5 µM and no less than 50%.
In assay [1], `COC(C(=O)N1Cc2c(NC(=O)C3([Si](C)(C)C)CCC3)n[nH]c2C1(C)C)c1cccc(F)c1` (stereo not shown) [IV-1404, N-{5-[2-(3-Fluorophenyl)-2-methoxyacetyl]-6,6-dimethyl-1,4,5,6-tetrahydropyrrolo[3,4-c]pyrazol-3-yl}-1-(trimethylsilyl)cyclobutanecarboxamide] registered an IC50 of no more than 0.5 µM. For the same compound, in assay [2], the inhibition in vivo at 0.01 % was no less than 50%.
With `CC1(C)c2[nH]nc(NC(=O)C3([Si](C)(C)C)CCC3)c2CN1C(=O)[C@H](OC(F)(F)F)c1ccccc1` [IV-1184, (R)—N-{6,6-Dimethyl-5-[2-phenyl-2-(trifluoromethoxy)acetyl]-1,4,5,6-tetrahydropyrrolo[3,4-c]pyrazol-3-yl}-1-(trimethylsilyl)cyclobutanecarboxamide], the Ki at CDK2 was no less than 1 µM. This compound also returned a concentration for half-maximal inhibition (IC50) in assay [1] of no more than 0.5 µM. Besides, in assay [2], the inhibition in vivo at 0.01 % was no less than 50%.
In assay [1], `CC(C)(CO)C(NC(=O)N1Cc2c(NC(=O)C3([Si](C)(C)C)CCC3)n[nH]c2C1(C)C)c1ccccc1` (racemic) [IV-354, N-(3-Hydroxy-2,2-dimethyl-1-phenylpropyl)-6,6-dimethyl-3-[1-(trimethylsilyl)cyclobutanecarboxamido]-4,6-dihydropyrrolo[3,4-c]pyrazole-5(1H)-carboxamide] gave an IC50 of no more than 0.5 µM. For the same compound, in assay [2], the inhibition in vivo at 0.01 % was no less than 50%.
`CC(C)(CO)C(NC(=O)N1Cc2c(NC(=O)C3([Si](C)(C)C)CCC3)n[nH]c2C1(C)C)c1cccc(F)c1` (stereo not shown) [IV-918, N-[1-(3-Fluorophenyl)-3-hydroxy-2,2-dimethylpropyl]-6,6-dimethyl-3-[1-(trimethylsilyl)cyclobutanecarboxamido]-4,6-dihydropyrrolo[3,4-c]pyrazole-5(1H)-carboxamide]: the IC50 in assay [1] was no more than 0.5 µM. For the same compound, the inhibition in vivo at 0.01 % in assay [2] is no less than 50%.
With `CC1(C)c2[nH]nc(NC(=O)C3([Si](C)(C)C)CCC3)c2CN1C(=O)N[C@H](CO)c1ccccc1` [IV-114, (S)—N-(2-Hydroxy-1-phenylethyl)-6,6-dimethyl-3-[1-(trimethylsilyl)cyclobutanecarboxamido]-4,6-dihydropyrrolo[3,4-c]pyrazole-5(1H)-carboxamide], the Ki at CDK2 was no less than 1 µM. In assay [1], this compound gave an IC50 of no more than 0.5 µM. Besides, the inhibition in vivo at 1 % in assay [2] was no less than 50%.
`CC1(C)c2[nH]nc(NC(=O)C3([Si](C)(C)C)CCC3)c2CN1C(=O)N[C@H](CCO)c1ccccc1` [IV-227, (R)—N-(3-Hydroxy-1-phenylpropyl)-6,6-dimethyl-3-[1-(trimethylsilyl)cyclobutanecarboxamido]-4,6-dihydropyrrolo[3,4-c]pyrazole-5(1H)-carboxamide]: the Ki on CDK2 was no less than 1 µM. Moreover, the 50% inhibitory concentration (IC50) in assay [1] is no more than 0.5 µM. Also, the inhibition in vivo at 1 % in assay [2] is no less than 50%.
Consider `CC1(C)c2[nH]nc(NC(=O)C3([Si](C)(C)C)CCC3)c2CN1C(=O)[C@H](OC(F)F)c1ccccc1` [IV-1180, (R)—N-{5-[2-(Difluoromethoxy)-2-phenylacetyl]-6,6-dimethyl-1,4,5,6-tetrahydropyrrolo[3,4-c]pyrazol-3-yl}-1-(trimethylsilyl)cyclobutanecarboxamide], for which, in assay [1], the concentration for half-maximal inhibition (IC50) is no more than 0.5 µM. The inhibition in vivo at 0.01 % in assay [2] was no less than 50%.
